Experimental data as given in US20050209278A1, “Piperidinyl- and piperazinyl-sulfonylmethyl hydroxamic acids and their use as protease inhibitors” (priority 2002, published 2005).
Counter-ions that a name gives are not always drawn.

What was measured:
MMP-1 = biological target: T1, MMP-1 (Homo sapiens, UniProt P03956); assay: In vitro MMP inhibition, IC50 determination (fluorogenic substrate I); format: biochemical; conditions: values in parenthesis; 4 μM substrate I; room temperature
T1 construct: made in house; host or cells: MMP-1-transfected HT-1080 cells (spent media)
T1 sequence (P03956 100-469): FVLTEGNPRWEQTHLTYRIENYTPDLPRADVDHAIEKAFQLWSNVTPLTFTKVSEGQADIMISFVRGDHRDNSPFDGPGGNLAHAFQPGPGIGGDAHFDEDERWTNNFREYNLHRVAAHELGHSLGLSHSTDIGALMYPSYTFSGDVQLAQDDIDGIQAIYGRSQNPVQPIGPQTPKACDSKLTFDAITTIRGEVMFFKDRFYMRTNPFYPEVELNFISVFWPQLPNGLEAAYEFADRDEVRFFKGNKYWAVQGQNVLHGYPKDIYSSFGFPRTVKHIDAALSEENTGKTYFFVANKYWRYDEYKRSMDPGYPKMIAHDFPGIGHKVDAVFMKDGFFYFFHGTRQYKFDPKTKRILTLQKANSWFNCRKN
Protocol: Several hydroxamic acids and salts thereof were analyzed in in vitro assays to determine their ability to inhibit the MMP cleavage of peptide substrates. […] and IC50 constants were calculated from the assayed hydroxamic acid-MMP interactions. Human recombinant MMP-1, MMP-2, MMP-9, MMP-13, and MMP-14 were used in this assay. All enzymes were prepared in Assignee's laboratories following usual laboratory procedures. Protocols for the preparation and use of these enzymes are available in the scientific literature. See, e.g., Enzyme Nomenclature (Academic Press, San Diego, Calif., 1992) (and the citations therein). See also, Freije et al., “Molecular cloning and expression of collagenase-3, a novel human matrix metalloproteinase produced by breast carcinomas,” J Biol. Chem., 269(24), 16766-16773 (1994). The MMP-1 proenzyme was purified from the spent media of MMP-1-transfected HT-1080 cells provided by Dr. Harold Welgus of Washington University (St. Louis, Mo.). The protein was purified on a zinc chelating column. All MMPs were activated using 4-aminophenylmercuric acetate (“APMA”, Sigma Chemical, St. Louis, Mo.) or trypsin. MMP-9 also was activated using human recombinant MMP-3 (purified in Assignee's laboratory following standard cloning and purification techniques). […] Substrate (I) was purchased from Baychem (Redwood City, Calif.), and substrate II was prepared Assignee's laboratory. Substrate I was used in the IC50 determination assays, while substrate II was used in the Ki determination assays. In the absence of MMP inhibitory activity, either substrate is cleaved at the Gly-Leu peptide bond. […] The stock solutions of the assayed hydroxamic acids (or salts thereof) were prepared in 1% dimethyl sulfoxide (DMSO). […] The experiment controls contained the same amount of Buffer A/DMSO as the assayed sample, but contained no hydroxamic acid (or salt thereof). The assays from which the IC50 determinations were made were performed as follows. […] Louis, Mo.). The assayed hydroxamic acid samples were incubated in MicrofluorTM White Plates (Dynatech, Chantilly, Va.) and analyzed on a Perkin Elmer […] plate reader (Norwalk, Conn.). The excitation wavelength was 328 nm, and the emission wavelength-415 nm. […] As stated in the previous paragraph, samples containing varying concentrations of the same assayed hydroxamic acid were prepared. Inhibition was measured as a reduction in fluorescent intensity as a function of MMP inhibitor concentration. […] All values in Table 2 are given in nM units. The IC50 measurements are in parenthesis.

MMP-9 = biological target: T2, MMP-9 (Homo sapiens, UniProt P14780); assay: as above; format: biochemical; conditions: values in parenthesis; 4 μM substrate I; room temperature
T2 construct: made in house; host or cells: MMP-9-transfected HT1080 cells (spent media)
Protocol: Several hydroxamic acids and salts thereof were analyzed in in vitro assays to determine their ability to inhibit the MMP cleavage of peptide substrates. […] and IC50 constants were calculated from the assayed hydroxamic acid-MMP interactions. Human recombinant MMP-1, MMP-2, MMP-9, MMP-13, and MMP-14 were used in this assay. All enzymes were prepared in Assignee's laboratories following usual laboratory procedures. Protocols for the preparation and use of these enzymes are available in the scientific literature. See, e.g., Enzyme Nomenclature (Academic Press, San Diego, Calif., 1992) (and the citations therein). See also, Freije et al., “Molecular cloning and expression of collagenase-3, a novel human matrix metalloproteinase produced by breast carcinomas,” J Biol. Chem., 269(24), 16766-16773 (1994). The MMP-9 proenzyme was purified by gelatin Sepharose chromatography from spent media of MMP-9-transfected HT1080 cells provided by Dr. Howard Welgus of Washington University (St. Louis, Mo.). All MMPs were activated using 4-aminophenylmercuric acetate (“APMA”, Sigma Chemical, St. Louis, Mo.) or trypsin. MMP-9 also was activated using human recombinant MMP-3 (purified in Assignee's laboratory following standard cloning and purification techniques). […] Substrate (I) was purchased from Baychem (Redwood City, Calif.), and substrate II was prepared Assignee's laboratory. Substrate I was used in the IC50 determination assays, while substrate II was used in the Ki determination assays. In the absence of MMP inhibitory activity, either substrate is cleaved at the Gly-Leu peptide bond. […] The stock solutions of the assayed hydroxamic acids (or salts thereof) were prepared in 1% dimethyl sulfoxide (DMSO). […] The experiment controls contained the same amount of Buffer A/DMSO as the assayed sample, but contained no hydroxamic acid (or salt thereof). The assays from which the IC50 determinations were made were performed as follows. […] Louis, Mo.). The assayed hydroxamic acid samples were incubated in MicrofluorTM White Plates (Dynatech, Chantilly, Va.) and analyzed on a Perkin Elmer […] plate reader (Norwalk, Conn.). The excitation wavelength was 328 nm, and the emission wavelength-415 nm. […] As stated in the previous paragraph, samples containing varying concentrations of the same assayed hydroxamic acid were prepared. Inhibition was measured as a reduction in fluorescent intensity as a function of MMP inhibitor concentration. […] All values in Table 2 are given in nM units. The IC50 measurements are in parenthesis.

T2 sequence (P14780 107-707 limits assumed): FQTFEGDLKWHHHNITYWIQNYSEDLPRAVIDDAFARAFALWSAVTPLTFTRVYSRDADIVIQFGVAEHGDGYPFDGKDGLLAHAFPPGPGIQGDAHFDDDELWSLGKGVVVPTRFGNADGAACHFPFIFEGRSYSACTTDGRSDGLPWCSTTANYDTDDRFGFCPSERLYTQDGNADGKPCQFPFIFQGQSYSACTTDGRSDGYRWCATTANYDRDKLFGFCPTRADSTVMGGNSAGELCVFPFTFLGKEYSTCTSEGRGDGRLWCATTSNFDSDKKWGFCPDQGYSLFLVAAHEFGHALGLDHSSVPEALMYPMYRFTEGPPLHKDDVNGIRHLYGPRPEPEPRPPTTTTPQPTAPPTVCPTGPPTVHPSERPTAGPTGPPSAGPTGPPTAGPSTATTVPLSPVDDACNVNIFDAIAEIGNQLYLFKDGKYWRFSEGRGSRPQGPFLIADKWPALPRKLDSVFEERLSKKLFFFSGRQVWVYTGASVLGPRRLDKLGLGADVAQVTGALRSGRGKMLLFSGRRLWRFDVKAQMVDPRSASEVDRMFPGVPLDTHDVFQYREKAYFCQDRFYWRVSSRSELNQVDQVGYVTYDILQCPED

Structure (SMILES): CCCCc1ccc(N2CCN(S(=O)(=O)C3(C(=O)NO)CCN(CCOC)CC3)CC2)cc1 [Example 5, 4-{[4-(4-butylphenyl)piperazin-1-yl]sulfonyl}-N-hydroxy-1-(2-methoxyethyl)piperidine-4-carboxamide Dihydrochloride]
- IC50 (MMP-1): > 10000 nM
- IC50 (MMP-9): < 0.1 nM

Structure (SMILES): CCCCCc1ccc(N2CCN(S(=O)(=O)C3(C(=O)NO)CCN(CCOC)CC3)CC2)cc1 [Example 6, N-Hydroxy-1-(2-methoxyethyl)-4-{[4-(4-pentylphenyl)piperazin-1-yl]sulfonyl}piperidine-4-carboxamide Dihydrochloride]
- IC50 (MMP-1): > 10000 nM
- IC50 (MMP-9): 0.2 nM

Structure (SMILES): O=C(NO)C1(S(=O)(=O)N2CCN(c3ccc(OCC4CC4)c(F)c3)CC2)CCN(C2CC2)CC1 [Example 10, 1-cyclopropyl-4-[[4-[4-(cyclopropylmethoxy)-3-fluorophenyl]-1-piperazinyl]sulfonyl]-N-hydroxy-4-piperidinecarboxamide, dihydrochloride]
- IC50 (MMP-1): > 10000 nM
- IC50 (MMP-9): 0.3 nM

Structure (SMILES): CCCCOc1ccc(N2CCN(S(=O)(=O)C3(C(=O)NO)CCN(CCOC)CC3)CC2)cc1F [Example 11, 4-[[4-(4-butoxy-3-fluorophenyl)-1-piperazinyl]sulfonyl]-N-hydroxy-1-(2-methoxyethyl)-4-piperidinecarboxamide, Dihydrochloride]
- IC50 (MMP-1): > 10000 nM
- IC50 (MMP-9): 2.3 nM

Structure (SMILES): CCCCCc1ccc(C2CCN(S(=O)(=O)C3(C(=O)NO)CCN(CCOC)CC3)CC2)cc1 [Example 15, N-hydroxy-1-(2-methoxyethyl)-4-{[4-(4-pentylpheyl)piperidin-1-yl]sulfonyl}piperidine-4-carboxamide Hydrochloride]
- IC50 (MMP-1): > 10000 nM
- IC50 (MMP-9): 0.3 nM
